One compound from US4657897A, “N^6 -substituted adenosines for treating pain” (Warner-Lambert Company, priority 1985, dated 1987) can be followed below.

The target in assay [1] is T1, adenosine A2 receptor (Rattus norvegicus, UniProt P30543).
T1 construct: 5 mg original tissue weight of rat weight of rat striatal membranes; tissue Pel-Freez (Rogers, Ark.) for the brains; host or cells: rat striatum (Sprague-Dawley; Long-Evans gave essentially identical results), membranes
As to the kind of experiment: Adenosine Receptor Binding--A2 Receptor Affinity (RBA2), [3H]NECA binding, rat striatal membranes. On the set-up: species or system rat (mixed sex Sprague-Dawley; male Long-Evans). Particulars: 4 nM [3H]NECA, 50 nM N6-cyclopentyladenosine, 25° C., 60 min. Here is the method:
Adenosine Receptor Binding--A2 Receptor Affinity (RBA2)
Brains from 200-500 g mixed sex Sprague-Dawley rats were purchased from Pel-Freez (Rogers, Ark.). […] Brains were thawed and then kept on ice while the striata were dissected out. Striata were disrupted in 10 vol of ice-cold 50 mM Tris.HCl (pH 7.7 at 25° C., pH 8.26 at 5° C.) (Tris) for 30 seconds in a Polytron PT-10 (Brinkmann) at setting 5. The suspension was centrifuged at 50,000 xg for ten minutes, the supernatant discarded, the pellet resuspended in 10 vol ice-cold Tris as above, recentrifuged, resuspended at 1 g/5 ml, and stored in plastic vials at -70° C. […] When needed, tissue was thawed at room temperature, disrupted in a Polytron, and kept on ice until used.
Test compounds were dissolved at 10 mM in dimethylsulfoxide on the same day as the experiment, and diluted in dimethylsulfoxide to 100× the final incubation concentration. […] [^3 H]NECA was diluted to 40 nM in Tris. […] After all additions, the rack of tubes was vortexed, and the tubes were then incubated for 60 min at 25° C. in a shaking water bath. The rack of tubes was vortexed an additional time halfway through the incubation.
Incubations were terminated by filtration through 2.4 cm GF/B filters under reduced pressure. Each tube was filtered as follows: the contents of the tube were poured onto the filter, 4 ml of ice-cold Tris were added to the tube and the contents poured onto the filter, and the filter was washed twice with 4 ml of ice-cold Tris. The filtration was complete in about twelve seconds. Filters were put in scintillation vials, 8 ml of Formula 947 scintillation fluid added, and the vials left overnight, shaken, and counted in a liquid scintillation counter at 40% efficiency.
The IC50 was calculated by weighted nonlinear least squares curve-fitting to the mass-action equation. [formula] where Y is cpm bound
T is cpm total binding without drug
S is cpm specific binding without drug
D is the concentration of drug
K is the IC50 of the drug
Weighting factors were calculated under the assumption that the standard deviation was proportional to the predicted value of Y. Nonspecific binding was treated as a very large (infinite) concentration of drug in the computer analysis.

The nature of assay [2]: Mouse Activity and Screen Test (MAST), screen test failure (ST). The assay is classed as in vivo, mouse (Swiss-Webster, male). As to conditions: for Inhibition of screen test failure: percent of mice falling off the screen. Here is the method: Treatments are administered intraperitoneally one hour prior to testing. […] Compounds are dissolved or suspended in 0.2% Methocel. Control animals are injected with Methocel.
The compounds are identified in the Examples.

In assay [3] the test system is rat heart. As to the kind of experiment: Coronary blood flow (PCS2A), isolated perfused rat heart. The arrangement: species or system rat (male). Particulars: read-out: effect on heart rate (HR). The procedure:
Male rats (400-600 gms) are pretreated with Na heparin 2000 units and anesthetized with Na pentobarbital (50 mg/kg) administered intraperitoneally. Once anesthetized, the rat heart is rapidly excised, the ascending aorta fitted to the aortic perfusion cannula, and secured with a ligature. The coronary arteries are perfused initially at a rate of about 15 ml/min for two to three minutes, afterwhich they are perfused at constant pressure of 70 mm Hg and temperature of 37° C. The electrocardiogram (ECG) is recorded using two platinum electrodes positioned at the base and apex of the left ventricle. A second heart is excised, cannulated, and perfused by the same method outlined above. Both hearts are tested in parallel. The standard physiological salt solution (PSS) is a modified Krebs-Hanseleit bicarbonate buffer of the following composition in mM concentration: NaCl, 127; NaHCO3, 25; dextrose, 5.5; Na Pyruvate, 2.0; KCl, 4.7; MgSO4, 1.1; KH 2PO4, 1.2; CaCl2.2H2 O, 2.5; CaNa2 EDTA, 0.05.
A 30-minute stabilization period is observed before starting the test protocol.
The microprocessor control system is a servo mechanism which permits coronary perfusion pressure (CPP) and drug concentration to be maintained constant independent of changes in coronary flow. The level at which CPP and drug concentration are maintained can be changed by commands communicated through the microprocessor keyboard. Dose-response curves are carried out by perfusing concentrated drug solution (DC) at rates proportional to total coronary flow (CFT). Drug concentrations are increased by proportionate increases in the rate of DC infusion over CFT via the microprocessor keyboard. The proportional flow rates for DC:CFT is about 0.0002:1 at the low end and 0.02:1 at the high end of the dose-response curve. Dose-response curves encompassing at least two log doses are carried out by preparing two DCs with a concentration difference of 1:100. Following the first dose range of two log doses, the DC are switched, proportional pumping rate adjusted, and the dose-responsecurve continued for another two log doses. The standard dose-response curve is carried out in one-half log dose increments starting at a subthreshold dose and ending at a dose which produces near maximal response in activity. Standard reference compounds are tested over the range of 10^-9 to 10^-6 M.
Measurements are for heart rate (HR) and coronary flow (CF). Units are: HR, beats/minute (bpm) and CF, milliliters/minute (ml/min). HR is calculated from the ECG strip chart recording and CF is calculated by recording analog outputs from pumps 1 and 2. Outputs from pump #1=CFT and the output from pump #2=CF for heart B (CFB). CF for heart A (CFA) is calculated (CFT -CFB =CFA).

Bounds are passed on as bounds.

T1 sequence (P30543 whole entry): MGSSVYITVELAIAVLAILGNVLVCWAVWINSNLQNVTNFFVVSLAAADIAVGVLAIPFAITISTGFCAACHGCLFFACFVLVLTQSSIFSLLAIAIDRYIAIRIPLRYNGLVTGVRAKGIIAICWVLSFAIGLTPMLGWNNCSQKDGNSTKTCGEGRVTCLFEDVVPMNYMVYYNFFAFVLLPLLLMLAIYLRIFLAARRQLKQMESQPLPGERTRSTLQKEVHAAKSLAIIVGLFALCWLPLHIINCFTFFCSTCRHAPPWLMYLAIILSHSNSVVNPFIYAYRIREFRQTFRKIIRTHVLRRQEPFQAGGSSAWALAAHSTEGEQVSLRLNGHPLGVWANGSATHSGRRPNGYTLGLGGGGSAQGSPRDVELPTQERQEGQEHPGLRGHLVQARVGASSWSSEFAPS

The IC50 is the concentration at which inhibition is half-maximal. In assay [1], `OC[C@H]1O[C@@H](n2cnc3c(NCCC(c4ccccc4)c4ccccc4)ncnc32)[C@H](O)[C@@H]1O` [Example 2, N^6-(3,3-Diphenylpropyl)adenosine] showed a half-maximal inhibitory concentration (IC50) of 390 nM. The “Inhibition of screen test failure” value in assay [2] (10 mg/kg intraperitoneal), in assay [2] (30 mg/kg intraperitoneal) and in assay [2] (100 mg/kg intraperitoneal) was 0% throughout. In addition, the minimal effective dose in assay [2] (Mus musculus, ip, lowest dose at which an A rating is achieved, screen test, intraperitoneal, 1 h prior to testing, read-out: MAST ST LAD) is over 100 mg/kg. In addition, the activation at 1 µM in assay [3] (1 × 10^-6 Molar) is -19%. Besides, in assay [3] (1 × 10^-7 Molar), the activation at 0.1 µM is -5%. Further, in assay [3] (1 × 10^-8 Molar), the activation at 0.01 µM is -2%. Moreover, the activation at 3 µM in assay [3] (3 × 10^-6 Molar) was -34%.
